Where two headings read alike, the source gives them in different places.
Assays:
human TLR7 = human TLR7 (Homo sapiens (Human), UniProt Q9NYK1); assay: TLR7 inhibition reporter assay (HEK-Blue cells, SEAP reporter, gardiquimod stimulation); format: cell-based
human TLR8 = human TLR8 (Homo sapiens (Human), UniProt Q9NR97); assay: TLR8 inhibition reporter assay (HEK-Blue cells, SEAP reporter, R848 stimulation);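 also: compounds tested from 0.05 nM to 50 µM, 22 h at 37 °C, SEAP measured with HEK-Blue Detection, inhibition relative to agonist plus DMSO versus a known inhibitor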
human TLR9 = human TLR9 (Homo sapiens (Human), UniProt Q9NR96); assay: TLR9 inhibition reporter assay (HEK-Blue cells, SEAP reporter, ODN2006 stimulation);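 also: compounds tested over 0.05 nM to 50 µM, 22 h incubation, inhibition taken as SEAP signal drop from agonist plus DMSO wells toward a known inhibitor control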
[1] = HEK-Blue cells overexpressing human TLR7, gardiquimod 7.5 μM
[2] = read-out: TLR8 IC50, HEK-Blue cells overexpressing human TLR8, R848 15.9 μM
[3] = read-out: TLR9 IC50, HEK-Blue cells overexpressing human TLR9, ODN2006 5 nM

human TLR9, sequence (Q9NR96 26-1032): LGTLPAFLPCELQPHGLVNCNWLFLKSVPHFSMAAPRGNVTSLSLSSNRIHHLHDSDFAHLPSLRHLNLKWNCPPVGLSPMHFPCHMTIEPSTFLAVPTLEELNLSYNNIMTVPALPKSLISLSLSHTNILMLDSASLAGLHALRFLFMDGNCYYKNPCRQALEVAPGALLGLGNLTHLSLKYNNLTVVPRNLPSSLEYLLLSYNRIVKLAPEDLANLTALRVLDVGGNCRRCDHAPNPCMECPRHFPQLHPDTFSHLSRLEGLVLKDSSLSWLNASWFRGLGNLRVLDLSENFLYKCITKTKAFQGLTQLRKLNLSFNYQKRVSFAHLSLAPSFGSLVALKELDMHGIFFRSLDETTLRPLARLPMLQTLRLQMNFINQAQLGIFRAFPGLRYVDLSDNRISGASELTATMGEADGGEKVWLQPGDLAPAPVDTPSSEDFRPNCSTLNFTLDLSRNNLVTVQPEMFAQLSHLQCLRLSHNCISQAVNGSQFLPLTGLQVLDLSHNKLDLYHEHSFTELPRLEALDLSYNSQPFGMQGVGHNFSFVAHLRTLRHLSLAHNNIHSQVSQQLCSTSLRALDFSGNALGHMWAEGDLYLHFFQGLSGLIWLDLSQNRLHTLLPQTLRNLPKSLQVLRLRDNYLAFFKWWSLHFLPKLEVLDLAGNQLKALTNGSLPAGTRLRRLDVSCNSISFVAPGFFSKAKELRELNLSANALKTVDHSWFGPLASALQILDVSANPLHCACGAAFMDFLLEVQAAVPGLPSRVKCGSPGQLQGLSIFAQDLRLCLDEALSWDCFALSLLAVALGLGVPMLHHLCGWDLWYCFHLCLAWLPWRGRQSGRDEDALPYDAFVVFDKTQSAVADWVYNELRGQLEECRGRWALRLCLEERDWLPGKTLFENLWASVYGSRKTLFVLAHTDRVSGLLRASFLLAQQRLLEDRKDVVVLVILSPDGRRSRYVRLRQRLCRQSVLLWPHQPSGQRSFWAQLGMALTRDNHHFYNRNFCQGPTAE
human TLR8, sequence (Q9NR97 27-1041): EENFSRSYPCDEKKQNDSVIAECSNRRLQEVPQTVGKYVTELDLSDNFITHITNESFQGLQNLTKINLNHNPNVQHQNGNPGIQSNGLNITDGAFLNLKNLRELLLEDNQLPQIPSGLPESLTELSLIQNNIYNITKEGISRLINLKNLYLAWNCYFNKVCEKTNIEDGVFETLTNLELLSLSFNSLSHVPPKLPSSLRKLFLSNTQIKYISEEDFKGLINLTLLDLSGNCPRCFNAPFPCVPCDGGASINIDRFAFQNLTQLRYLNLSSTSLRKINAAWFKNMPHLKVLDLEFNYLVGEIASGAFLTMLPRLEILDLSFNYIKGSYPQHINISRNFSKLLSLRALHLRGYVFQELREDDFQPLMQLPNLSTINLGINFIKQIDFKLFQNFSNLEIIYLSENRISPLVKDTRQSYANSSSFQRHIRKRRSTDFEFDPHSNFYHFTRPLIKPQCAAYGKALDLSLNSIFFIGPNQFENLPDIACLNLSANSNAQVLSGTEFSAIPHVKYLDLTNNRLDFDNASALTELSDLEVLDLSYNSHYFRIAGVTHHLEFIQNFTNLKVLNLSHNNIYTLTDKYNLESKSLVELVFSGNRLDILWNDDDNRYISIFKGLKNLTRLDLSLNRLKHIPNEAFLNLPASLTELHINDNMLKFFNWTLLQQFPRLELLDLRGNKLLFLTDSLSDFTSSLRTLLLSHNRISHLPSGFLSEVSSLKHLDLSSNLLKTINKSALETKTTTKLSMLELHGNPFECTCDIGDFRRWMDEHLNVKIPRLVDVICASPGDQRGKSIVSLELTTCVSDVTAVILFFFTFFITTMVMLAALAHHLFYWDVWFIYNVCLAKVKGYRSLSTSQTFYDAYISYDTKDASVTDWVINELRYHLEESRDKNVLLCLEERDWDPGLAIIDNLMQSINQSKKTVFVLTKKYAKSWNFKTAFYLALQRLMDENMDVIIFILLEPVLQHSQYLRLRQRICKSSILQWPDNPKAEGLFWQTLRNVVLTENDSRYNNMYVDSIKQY
human TLR7, sequence (Q9NYK1 27-1049): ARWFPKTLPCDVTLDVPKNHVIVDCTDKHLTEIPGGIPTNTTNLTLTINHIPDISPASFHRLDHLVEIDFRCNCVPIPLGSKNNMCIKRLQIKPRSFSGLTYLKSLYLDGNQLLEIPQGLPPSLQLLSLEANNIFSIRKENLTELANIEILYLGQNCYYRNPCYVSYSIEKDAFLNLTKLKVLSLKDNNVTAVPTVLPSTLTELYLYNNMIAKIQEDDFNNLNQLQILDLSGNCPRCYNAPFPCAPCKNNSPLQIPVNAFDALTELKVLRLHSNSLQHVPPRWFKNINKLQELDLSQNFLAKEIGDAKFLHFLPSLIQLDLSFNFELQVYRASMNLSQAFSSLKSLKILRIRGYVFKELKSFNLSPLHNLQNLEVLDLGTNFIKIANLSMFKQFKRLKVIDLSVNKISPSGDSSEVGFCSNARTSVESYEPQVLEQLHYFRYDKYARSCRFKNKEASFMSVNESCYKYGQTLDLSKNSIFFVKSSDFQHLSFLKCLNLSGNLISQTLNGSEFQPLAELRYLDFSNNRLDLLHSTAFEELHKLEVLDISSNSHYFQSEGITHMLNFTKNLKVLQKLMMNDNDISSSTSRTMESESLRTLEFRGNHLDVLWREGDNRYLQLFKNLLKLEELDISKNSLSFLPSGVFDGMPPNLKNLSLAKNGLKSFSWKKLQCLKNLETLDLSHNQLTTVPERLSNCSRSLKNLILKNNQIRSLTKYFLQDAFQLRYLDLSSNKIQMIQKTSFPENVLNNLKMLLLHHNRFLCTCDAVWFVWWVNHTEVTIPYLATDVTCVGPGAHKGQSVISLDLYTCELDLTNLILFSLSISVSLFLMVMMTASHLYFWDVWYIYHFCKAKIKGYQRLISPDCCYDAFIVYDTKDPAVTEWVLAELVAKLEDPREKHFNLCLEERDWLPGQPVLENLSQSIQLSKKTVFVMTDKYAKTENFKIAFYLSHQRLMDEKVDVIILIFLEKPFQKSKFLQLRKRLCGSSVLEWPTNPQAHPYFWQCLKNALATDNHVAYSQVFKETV

IC50 (human TLR7; [1]) | IC50 (human TLR8; [2]) | IC50 (human TLR9; [3]) | IC50 (human TLR7; HEK-Blue cells, gardiquimod 7.5 μM) | IC50 (human TLR8; read-out: TLR8 IC50, HEK-Blue cells, R848 15.9 μM) | IC50 (human TLR9; read-out: TLR9 IC50, HEK-Blue cells, ODN2006 5 nM) | Structure (SMILES)
14.6 nM | 152 nM | 833 nM |  |  |  | Cc1cc(-c2[nH]c3ccc(C4CCN(C(=O)CN5C[C@@H](C(F)(F)F)C[C@H]5CO)CC4)cc3c2C(C)C)cc(C)n1 [Example 394, 1-(4-(2-(2,6-dimethylpyridin-4-yl)-3-isopropyl-1H-indol-5-yl)piperidin-1-yl)-2-((2S,4S)-2-(hydroxymethyl)-4-(trifluoromethyl)pyrrolidin-1-yl)ethan-1-one]
11.5 nM | 22.2 nM | 110 nM |  |  |  | CNCCN1CCC(c2ccc3[nH]c(-c4cc(C)nc(C)c4)c(CC(F)F)c3c2)CC1 [Example 541, 2-(4-(3-(2,2-difluoroethyl)-2-(2,6-dimethylpyridin-4-yl)-1H-indol-5-yl)piperidin-1-yl)-N-methylethan-1-amine]
7.1 nM | 35.8 nM | > 50000 nM |  |  |  | Cc1cc(-c2[nH]c3ccc(C4CCN(C(=O)CN5C(=O)CN(C)C5=O)CC4)cc3c2C(C)C)cc(C)n1 [Example 160, 3-(2-(4-(2-(2,6-dimethylpyridin-4-yl)-3-isopropyl-1H-indol-5-yl)piperidin-1-yl)-2-oxoethyl)-1-methylimidazolidine-2,4-dione]
119 nM | 206 nM | 9750 nM |  |  |  | Cc1cc(-c2[nH]c3ccc(C4CCN(S(=O)(=O)c5cccnc5)CC4)cc3c2C(C)C)ccn1 [Example 543, 3-isopropyl-2-(2-methylpyridin-4-yl)-5-(1-(pyridin-3-ylsulfonyl)piperidin-4-yl)-1H-indole]
 |  |  | 19.7 nM | 4.1 nM | 1440 nM | Cc1cc(-c2[nH]c3ccc(C4CCN(C(C)CF)CC4)cc3c2C(C)C)c(C)cn1 (stereo not drawn) [Example 870, 2-(2,5-dimethylpyridin-4-yl)-5-(1-(1-fluoropropan-2-yl)piperidin-4-yl)-3-isopropyl-1H-indole]
14.2 nM | 1.1 nM | 1450 nM |  |  |  | Cc1cc(-c2[nH]c3ccc(C4CCN(C5CCCOC5)CC4)cc3c2C(C)C)c(C)cn1 (stereo not drawn) [Example 726, 2-(2,5-dimethylpyridin-4-yl)-3-isopropyl-5-(1-(tetrahydro-2H-pyran-3-yl)piperidin-4-yl)-1H-indole]
6.2 nM | 5.8 nM | 396 nM |  |  |  | Cc1cc(-c2[nH]c3ccc(C4CCN(Cc5ncccn5)CC4)cc3c2C(C)C)cc(C)n1 [Example 460, 2-(2,6-dimethylpyridin-4-yl)-3-isopropyl-5-(1-(pyrimidin-2-ylmethyl)piperidin-4-yl)-1H-indole]
5.2 nM | 10.2 nM | 942 nM |  |  |  | CCCNC(=O)CN1CCC(c2ccc3[nH]c(-c4cc(C)nc(C)c4)c(C(C)C)c3c2)CC1 [Example 238, 2-(4-(2-(2,6-dimethylpyridin-4-yl)-3-isopropyl-1H-indol-5-yl)piperidin-1-yl)-N-propylacetamide]
5.7 nM | 22.3 nM | 451 nM |  |  |  | Cc1cc(-c2[nH]c3ccc(C4CCN(CC(=O)N5C(C)CCC5C)CC4)cc3c2C(C)C)cc(C)n1 (stereo not drawn) [Example 261, 2-(4-(2-(2,6-dimethylpyridin-4-yl)-3-isopropyl-1H-indol-5-yl)piperidin-1-yl)-1-(2,5-dimethylpyrrolidin-1-yl)ethan-1-one]
10.1 nM | 21.1 nM | 835 nM |  |  |  | Cc1cc(-c2[nH]c3ccc(C4CCN(C(CF)CF)CC4)cc3c2C(C)C)cc(C)n1 [Example 473, 5-(1-(1,3-difluoropropan-2-yl)piperidin-4-yl)-2-(2,6-dimethylpyridin-4-yl)-3-isopropyl-1H-indole]
6.4 nM | 10.7 nM | 444 nM |  |  |  | Cc1cc(-c2[nH]c3ccc(C4CCN(CC(=O)N5CCCCC5)CC4)cc3c2C(C)C)cc(C)n1 [Example 241, 2-(4-(2-(2,6-dimethylpyridin-4-yl)-3-isopropyl-1H-indol-5-yl)piperidin-1-yl)-1-(piperidin-1-yl)ethan-1-one]

Structure (SMILES) | IC50 (human TLR7; [1]) | IC50 (human TLR8; [2]) | IC50 (human TLR9; [3]) | IC50 (human TLR7; HEK-Blue cells, gardiquimod 7.5 μM) | IC50 (human TLR8; read-out: TLR8 IC50, HEK-Blue cells, R848 15.9 μM) | IC50 (human TLR9; read-out: TLR9 IC50, HEK-Blue cells, ODN2006 5 nM)
CNC(=O)CN1CCC(c2ccc3[nH]c(-c4ccnc(C)c4)c(C(C)C)c3c2)CC1 [Example 513] | 13.5 nM | 9.8 nM | 2260 nM |  |  | 
